This is an account of results in patent EP4813999A1, “NOVEL PEPTIDE DERIVATIVE AND PHARMACEUTICAL COMPOSITION FOR PREVENTING OR TREATING MACULAR DEGENERATION COMPRISING SAME” (Supadelixir Inc., priority 2023, dated 2026).

One assay relates to ARPE19 cells. As to the kind of experiment: Cell viability under hydrogen peroxide-induced oxidative stress (CCK-8). Type of assay: cell-based, Human. As to conditions: 400 µM hydrogen peroxide, test substance 0.01, 0.1, 1, 2 µM, 24 hours. As to the method:
Human retinal pigment epithelial cells (ARPE19) were cultured in a humidified incubator with 5% CO2 at 37°C. DMEM/F12 (Gibco) containing 10% fetal bovine serum and penicillin (100 U/ml)/streptomycin ([…]) was used as medium. The cells were cultured with the medium replaced with fresh medium every other day and were passaged using 0.25% trypsin containing 0.02% ethylenediaminetetraacetic acid (EDTA).
After oxidative stress was induced in human retinal pigment epithelial cells using hydrogen peroxide (H2O2), the test substance (SE101B2L) was added at varying concentrations to confirm changes in cell viability. CCK-8 was used to confirm cell viability.
ARPE19 cells were seeded into a 96-well plate at 1 × 10^4 cells/well and cultured in an incubator for 24 hours. The test substance was added to each treatment group at concentrations of 0, 0.01, 0.1, 1, and 2 µM, together with 400 µM hydrogen peroxide, followed by incubation for 24 hours. […] After incubation, a 96-well plate containing 90 µL of cell suspension per well was inoculated with 10 µL of ready-to-use CCK-8 solution. The plate was incubated for 2 hours, and the OD450 of the supernatant was measured to confirm cell viability through quantification.

Another assay relates to AKT and ERK. As to the kind of experiment: VEGF-induced phosphorylation of AKT and ERK (immunoblot). Type of assay: cell-based, human. To be noted: HUVECs; VEGF co-treatment; test substance 0.1, 1, 10, 100 nM; 10 minutes. As to the method:
The experiment was conducted by dividing the groups into an untreated group, a group treated with VEGF alone, and a group co-treated with VEGF and the test substance (SE101B2L).
Additionally, whether the test substance could regulate the phosphorylation levels of AKT and ERK molecules, which are important in signaling related to VEGF-induced angiogenesis, was tested. Into a 6-well plate containing 2 ml of growth medium, 2 × 10^5 HUVECs were added and seeded, followed by incubation in an incubator with 5% CO2 at 37°C for one day. Subsequently, after washing the cells with phosphate-buffered saline (PBS), incubation was performed for an additional 6 hours using CEFOgro-HUVEC medium containing 1% fetal bovine serum. The prepared cells were divided into an untreated group, a group treated with VEGF alone, and groups co-treated with VEGF and the test substance (0.1, 1, 10, and 100 nM), followed by treatment with the test substance. […] Protein amounts of the cell lysates were measured by a Bradford assay, followed by separation using sodium dodecyl sulfate-polyacrylamide gel electrophoresis (SDS-PAGE). […]

Assay [1] concerns CNV-induced male chinchilla rabbits. As to the kind of experiment: Macular degeneration animal model: laser-induced CNV, retinal fluorescein fundus imaging. The format is in vivo. To be noted: instillation 50 µL twice daily, Day 7 and Day 14, versus induced control group (G1). The text has this: As a macular degeneration animal model, CNV-induced male chinchilla rabbits were used. The efficacy test using the CNV animal model was commissioned to HLB Biostep Co., Ltd. (formerly Notus Co., Ltd.). In order to induce CNV formation, a mydriatic agent (Mydriacyl 1% eye drops) was instilled into the right eye of each chinchilla rabbit, followed by anesthesia. Thereafter, the right eye was irradiated using a laser (LIGHTLas 532, LIGHTMED, USA) under conditions of a wavelength of 532 nm and a power of 150 mW for 0.1 seconds, thereby creating six wounds in the 6 o'clock direction centered on the optic nerve.
An induced control group (G1) was repeatedly administered 0.9% aqueous sodium chloride solution (vehicle) by instillation twice daily. […]
After initiation of administration to each group, a mydriatic agent (Mydriacyl 1% eye drops) was instilled into the right eye of each animal on Day 0, Day 7, and Day 14, followed by anesthesia. […] Confirmation of retinal CNV and evaluation of pharmacological efficacy were performed using retinal fluorescein fundus images, and image analysis was performed using the ImageJ software (NIH, Bethesda, MD) to analyze fluorescence intensity at irradiated sites.
Assuming normality for the results of the present test, significance between test groups was analyzed using parametric one-way analysis of variance (one-way ANOVA). […]

Take “decylbenzoyl-Cys-Phe-Lys-amide [SE101B2L]”: the cell viability result in the assay with ARPE19 cells was “increases cell viability in a concentration-dependent manner”. Also, in the assay on AKT and ERK, the “phosphorylation levels of signaling molecules (AKT, ERK)” value is on record as “reduced by the test substance in a concentration-dependent manner”. Further, the retinal fluorescence intensity result in assay [1] (G3: 3750 ppm) and in assay [1] (G4: 187.5 ppm) was “statistically significantly lower than those in the induced control group (G1) (p < 0.001)” each time.
